± gives the uncertainty stated by the source.
Experiment: xn = mol fraction of the nth substance listed

**Q.** With `CCCCCCCC[n+]1ccc2ccccc2c1.O=S(=O)([N-]S(=O)(=O)C(F)(F)F)C(F)(F)F` + c1ccncc1 as the compound, how does the viscosity (308.15 K, 101 kPa, x2 = 0.0945) read?
**A.** 155 ± 6.4 mPa·s

**Q.** And the viscosity (308.15 K, 101 kPa, x2 = 0.8199)?
**A.** 5.32 ± 0.11 mPa·s

**Q.** What about the viscosity (328.15 K, 101 kPa, x2 = 0) of the same compound?
**A.** 67.9 ± 1.6 mPa·s

**Q.** What about the viscosity (328.15 K, 101 kPa, x2 = 0.7274) of the same compound?
**A.** 4.82 ± 0.1 mPa·s

**Q.** And the viscosity (338.15 K, 101 kPa, x2 = 0.0945)?
**A.** 38.2 ± 0.88 mPa·s

**Q.** What about the viscosity (338.15 K, 101 kPa, x2 = 0.5383) of the same compound?
**A.** 10.76 ± 0.24 mPa·s

**Q.** And the viscosity (338.15 K, 101 kPa, x2 = 0.8199)?
**A.** 3.09 ± 0.07 mPa·s

**Q.** And the viscosity (348.15 K, 101 kPa, x2 = 0.0945)?
**A.** 26.97 ± 0.62 mPa·s

**Q.** Which results are given for `CCCCCCCC[n+]1ccc2ccccc2c1.O=S(=O)([N-]S(=O)(=O)C(F)(F)F)C(F)(F)F` + OCCc1ccccc1?
**A.** viscosity (298.15 K, 101 kPa, x2 = 0.5766): 60.64 ± 0.67 mPa·s; viscosity (298.15 K, 101 kPa, x2 = 0.8956): 18.61 ± 0.19 mPa·s; viscosity (308.15 K, 101 kPa, x2 = 0.695): 25 ± 0.29 mPa·s; viscosity (318.15 K, 101 kPa, x2 = 0.1985): 71.5 ± 1.1 mPa·s; viscosity (318.15 K, 101 kPa, x2 = 0.3748): 45.28 ± 0.57 mPa·s; viscosity (318.15 K, 101 kPa, x2 = 0.5766): 23.86 ± 0.26 mPa·s; viscosity (328.15 K, 101 kPa, x2 = 0.0851): 58.53 ± 0.8 mPa·s; viscosity (328.15 K, 101 kPa, x2 = 0.3748): 30.17 ± 0.35 mPa·s; viscosity (328.15 K, 101 kPa, x2 = 0.5766): 16.54 ± 0.17 mPa·s; viscosity (328.15 K, 101 kPa, x2 = 0.695): 11.76 ± 0.11 mPa·s; viscosity (338.15 K, 101 kPa, x2 = 0.0851): 39.05 ± 0.56 mPa·s; viscosity (338.15 K, 101 kPa, x2 = 0.3748): 21.2 ± 0.25 mPa·s; viscosity (338.15 K, 101 kPa, x2 = 0.695): 8.67 ± 0.08 mPa·s

**Q.** For `CCCC[P+](CCCC)(CCCC)CCCC.[Br-]` + O, which viscosity (298.15 K, 101 kPa, x1 = 0.09759) is on record?
**A.** 10.65 ± 0.25 mPa·s

**Q.** For `CC(=O)CCC(=O)O` + CCCC[N+](CCCC)(CCCC)CCCC.[Cl-], which viscosity (293.15 K, 101.33 kPa, x2 = 0.3333) is on record?
**A.** 609 ± 24 mPa·s

**Q.** And the viscosity (298.15 K, 101.33 kPa, x2 = 0.3333)?
**A.** 405 ± 14 mPa·s

**Q.** And the viscosity (303.15 K, 101.33 kPa, x2 = 0.3333)?
**A.** 276 ± 9 mPa·s

**Q.** What about the viscosity (308.15 K, 101.33 kPa, x2 = 0.3333) of the same compound?
**A.** 195 ± 6 mPa·s

**Q.** What about the viscosity (313.15 K, 101.33 kPa, x2 = 0.3333) of the same compound?
**A.** 141 ± 4 mPa·s

**Q.** And the viscosity (318.15 K, 101.33 kPa, x2 = 0.3333)?
**A.** 105 ± 3 mPa·s

**Q.** What about the viscosity (323.15 K, 101.33 kPa, x2 = 0.3333) of the same compound?
**A.** 79 ± 2 mPa·s

**Q.** And the viscosity (328.15 K, 101.33 kPa, x2 = 0.3333)?
**A.** 61 ± 2 mPa·s

**Q.** And the electrical conductivity (333.15 K, 101 kPa, x1 = 0.75)?
**A.** 0.177 ± 0.011 S/m

**Q.** What about the viscosity (333.15 K, 101 kPa, x1 = 0.75) of the same compound?
**A.** 17.47 ± 0.73 mPa·s

**Q.** And the viscosity (333.15 K, 101.33 kPa, x2 = 0.3333)?
**A.** 48 ± 1 mPa·s

**Q.** What about the viscosity (338.15 K, 101.33 kPa, x2 = 0.3333) of the same compound?
**A.** 39 ± 1 mPa·s

**Q.** And the electrical conductivity (343.15 K, 101 kPa, x1 = 0.75)?
**A.** 0.238 ± 0.014 S/m

**Q.** What about the viscosity (343.15 K, 101.33 kPa, x2 = 0.3333) of the same compound?
**A.** 32 ± 1 mPa·s

**Q.** What about the viscosity (348.15 K, 101.33 kPa, x2 = 0.3333) of the same compound?
**A.** 26 ± 1 mPa·s

**Q.** What about the viscosity (353.15 K, 101.33 kPa, x2 = 0.3333) of the same compound?
**A.** 22 ± 1 mPa·s

**Q.** With `CC[n+]1ccn(C)c1.C[C@H](N)C(=O)[O-]` + CC[n+]1ccn(C)c1.N#C[C-](C#N)C#N as the compound, how does the viscosity (308.15 K, 101 kPa, x2 = 0) read?
**A.** 137.5 ± 6.2 mPa·s

**Q.** What about the viscosity (313.15 K, 101 kPa, x2 = 0) of the same compound?
**A.** 103.5 ± 4.1 mPa·s

**Q.** What does the source list for `CC[NH+](C)CC.CS(=O)(=O)[O-]` + O + CC[NH+](C)CC.O=S(=O)([O-])C(F)(F)F?
**A.** viscosity (313.15 K, 101 kPa, x2 = 0.121, x3 = 0): 46.5 ± 3.3 mPa·s; viscosity (333.15 K, 101 kPa, x2 = 0.121, x3 = 0): 21.6 ± 1.5 mPa·s; viscosity (353.15 K, 101 kPa, x2 = 0.121, x3 = 0): 12.05 ± 0.85 mPa·s

Source: the CheMixHub ionic liquid set
